{
  "source": "patent US10106853B2",
  "about": "“CUL4B as predictive biomarker for cancer treatment” (CORNELL UNIVERSITY, priority 2012, dated 2018)",
  "key": {"[1]": {"system": "γH2AX foci in BT474 cells", "test": "Immunofluorescent detection of γH2AX foci", "type": "cell-based, Human", "conditions": "2 μM CPT 2 hours, 1 hour repair", "procedure": "FIG. 3. CUL4B^k/d BT474 cells are susceptible to CPT-induced DNA damage. A) Persistent DNA damage in CPT-treated BT474-CUL4B^k/d cells. Control or CUL4B^k/d BT474 cells were treated with 2 μM of CPT for the indicated time periods, replenished with CPT-free fresh medium, incubated at 37° C. for 1 hour to repair DNA damage, and subjected to immunoblotting with the anti-γH2AX antibody to determine the extent of DNA damage. B) Immunofluorescent detection of γH2AX foci in control or CUL4B^k/d BT474 cells following CPT treatment. BT474 cells were infected with lentiviral control shRNA (shCtrl) or shCUL4B, treated with 2 μM CPT for 2 hours and replenished with CPT-free fresh medium, incubated at 37° C. for 1 hour to repair DNA damage. γH2AX foci were detected by immunofluorescent assay with the rabbit anti-γH2AX antibody and goat anti-rabbit secondary antibody conjugated with cy3 (red). Nuclei were stained with DAPI (blue). C, D) Percentage of γH2AX-positive cells and number of persistent γH2AX foci in a total of 300 γH2AX-positive cells. All values were presented as mean±S.E. Statistical significance was assessed by a two-tailed unpaired Student t-test (***: p<0.001).\nCells were initially grown on chamber slides. […] After PBS washes, cells were mounted with FluroSave™ Reagent (Calbiochem), and visualized under the fluorescence microscope, and images were captured via camera."}, "BT474 cells": {"system": "BT474 cells", "test": "Apoptosis by Western blotting of cleaved caspase-3 and PARP", "type": "cell-based, Human", "conditions": "CUL4B-silenced BT474 cells vs control cells", "procedure": "FIG. 4. Marked enhancement of apoptosis in BT474-CUL4B^k/d cells following CPT treatment. A, B) Control (shCtrl) or CUL4B^k/d BT474 (shCUL4B) cells were treated with indicated concentrations of CPT for 72 hours (A) or 100 nM CPT for 1, 2 and 3 days (B). Cells were then lysed and immunoblotted with antibodies against native or cleaved caspase 3 or PARP to measure the induction of apoptosis. C) Control, CUL4A^k/d and CUL4B^k/d BT474 cells were treated with 100 nM CPT for 3 days. Cell lysates were prepared and immunoblotted with antibodies against native or cleaved PARP.\nDNA double stranded breaks are one of the most cytotoxic lesions as persistence of γH2AX foci after the initial induction of DNA damage leads to apoptosis. To examine whether CUL4B knockdown affects the sensitivity of breast cancer cells to CPT-induced apoptosis, BT474 cells were treated with CPT and analyzed for induction of apoptosis, as exemplified by cleavage of caspase-3 and PARP."}},
  "data": [
    {"smiles": "CC[C@@]1(O)C(=O)OCc2c1cc1n(c2=O)Cc2cc3ccccc3nc2-1", "note": "[CPT, (S)-4-ethyl-4-hydroxy-1H-pyrano[3′,4′:6,7]indolizino[1,2-b]quinoline-3,14-(4H, 12H)-dione]", "values": [
      {"measurement": "Cells with accumulation of γH2AX foci", "setting": "[1]; CPT-treated CUL4B k/d BT474 cells", "result": 50, "unit": "%"},
      {"measurement": "Cells with accumulation of γH2AX foci", "setting": "[1]; CPT-treated control BT474 cells", "result": 20, "unit": "%"},
      {"measurement": "Induction of apoptosis (cleaved caspase-3 and PARP) post-CPT treatment", "setting": "BT474 cells", "result": "robust induction of apoptosis"}
    ]}
  ]
}
